Usually solubility stands for how much of the substance goes into solution per volume. The Papp A→B is how fast a substance crosses the layer from the apical side. As usually defined, the Papp B→A is how fast a substance crosses the layer from the basolateral side. One may read the efflux ratio as a quotient of directional permeabilities that is used to spot active efflux.

The values below come from patent US20240002404A1, “SALT OF PYRROLOPYRIMIDINE COMPOUND, CRYSTALLINE FORM THEREOF, AND APPLICATION THEREOF” (GUANGZHOU JOYO PHARMATECH CO., LTD, priority 2020, published 2024).

Counter-ions that a name gives are not always drawn. Like-named read-outs stand apart in the source and are kept apart here.

Series [1] can be described thus: Dynamic solubility evaluation in water and biological menstruums. The settings on record: for pH: solubility sample. The series is classed as physicochemical. As for the experimental part:
The dynamic solubility of the crystal form B of the sulfate, the crystal form A of the maleate and the crystal form C of the hydrochloride in water and three biological menstruums was evaluated.

Series [2] can be described thus: Hygroscopicity evaluation by DVS. The format is physicochemical. The settings on record: 25° C./80% RH, listed as crystal form B of the sulfate. As for the experimental part:
The hygroscopicity of the crystal form B of the sulfate, the crystal form A of the maleate and the crystal form C of the hydrochloride was evaluated by DVS. The water adsorption (second adsorption curve) of the three salt forms at 25° C./80% RH is 7.62%, 1.35% and 4.77% respectively.

Series [3] in a line: Solid state stability (HPLC purity after storage). The format is physicochemical. As for the experimental part:
The chemical stability of the samples was determined by HPLC after placing the crystal form B of the sulfate, the crystal form A of the maleate and the crystal form C of the hydrochloride at 25° C./60% RH and 40° C./75% RH for 1 week, respectively. For the maleate, additional stability data for one month and two months storage at 25° C./60% RH and 40° C./75% RH (open) were collected, and using the crystal form A of maleate as the starting sample, stability data for 24 hours storage at 60° C. (closed) were collected.

A short description of a further series: in vitro. The settings on record: human, Caco-2, pH 7.4. Here is the method:
The transport buffer solution was HBSS (Hanks' balanced salt solution) and 10 mM HEPES [N-(2-hydroxyethyl)piperazine-N-(2-ethanesulfonic acid) solution], with a pH value of 7.40±0.05; Caco-2 cells were purchased from ATCC.
Caco-2 cells were seeded at 1×10^5 cells/cm^2 in 96-well BD insert plates of polyethylene terephthalate (PET), and the medium was refreshed every 4-5 days until day 21-28 to form a confluent monolayer. Test compounds were tested in a two-way format at 2 μM in duplicate. Digoxin was added at 10 μM in the two-way format, and nadolol and metoprolol were added at 2 μM in the two-way format. Final concentration of DMSO was adjusted to less than 1%. The plates were incubated in a CO2 incubator at 37±1° C. for 2 h with 5% CO2 at saturated humidity without shaking. All samples were mixed with acetonitrile containing an internal standard, and centrifuged at 4000 rpm for 10 min. 100 microliters of supernatant was diluted with 100 microliters of distilled water for LC/MS/MS analysis. By LC/MS/MS analysis, the concentrations of the test compounds and the reference compound in the initial test article solution, the test article solution and the test compound solution using the peak area ratio of the analyte to the internal standard. After the transport test, the integrity of the Caco-2 cell monolayer was determined by fluorescein yellow exclusion reaction, and the apparent permeability coefficient and efflux ratio were calculated.

The mark [4] stands for this setting: FaSSIF, 1 hour, 37° C., feeding 10 mg/mL.
Where [5] appears, read: FaSSIF, 2 hours, 37° C., feeding 10 mg/mL.
[6] abbreviates: FaSSIF, 4 hours, 37° C., feeding 10 mg/mL.
Where [7] appears, read: FaSSIF, 24 hours, 37° C., feeding 10 mg/mL.
The mark [8] stands for this setting: FeSSIF, 1 hour, 37° C., feeding 10 mg/mL.
Setting [9] is: FeSSIF, 2 hours, 37° C., feeding 10 mg/mL.
[10] abbreviates: FeSSIF, 4 hours, 37° C., feeding 10 mg/mL.
Setting [11] is: FeSSIF, 24 hours, 37° C., feeding 10 mg/mL.
Where [12] appears, read: H2O, 24 hours, 37° C., feeding 10 mg/mL.
Setting [13] is: H2O, 1 hour, 37° C., feeding 10 mg/mL.
Setting [14] is: H2O, 2 hours, 37° C., feeding 10 mg/mL.
Setting [15] is: H2O, 4 hours, 37° C., feeding 10 mg/mL.
[16] abbreviates: SGF, 1 hour, 37° C., feeding 10 mg/mL.
The mark [17] stands for this setting: SGF, 2 hours, 37° C., feeding 10 mg/mL.
[18] abbreviates: SGF, 4 hours, 37° C., feeding 10 mg/mL.
Setting [19] is: SGF, 24 hours, 37° C., feeding 10 mg/mL.

As for `CN(c1ncnc2[nH]ccc12)[C@@H]1CCc2cc(C#N)nn2C1` [Crystal form A of maleate], the “S: solubility” value in series [1] (setting [4]) came out at 980 µg/mL; in series [1] (setting [5]), 960 µg/mL; in series [1] (setting [6]) it was 980 µg/mL; in series [1] (setting [7]), 770 µg/mL; in series [1] (setting [8]), 60 µg/mL; in series [1] (setting [9]), 50 µg/mL. The “S: solubility” value came out at 50 µg/mL in series [1] (setting [10]), 30 µg/mL in series [1] (setting [11]) and 1700 µg/mL in series [1] (setting [12]). The solubility at 1 h in series [1] (SGF, 37 °C, simulated gastric fluid, thermodynamic from solid, SGF, 1 hour, 37° C., feeding 10 mg/mL, read-out: S: solubility) is 6800 µg/mL; in series [1] (water, 37 °C, water, thermodynamic from solid, H2O, 1 hour, 37° C., feeding 10 mg/mL, read-out: S: solubility), 2900 µg/mL. Moreover, the solubility at 2 h is 6400 µg/mL in series [1] (SGF, 37 °C, simulated gastric fluid, thermodynamic from solid, SGF, 2 hours, 37° C., feeding 10 mg/mL, read-out: S: solubility) and 2800 µg/mL in series [1] (water, 37 °C, water, thermodynamic from solid, H2O, 2 hours, 37° C., feeding 10 mg/mL, read-out: S: solubility). In addition, the solubility at 4 h in series [1] (SGF, 37 °C, simulated gastric fluid, thermodynamic from solid, SGF, 4 hours, 37° C., feeding 10 mg/mL, read-out: S: solubility) was 6600 µg/mL; in series [1] (water, 37 °C, water, thermodynamic from solid, H2O, 4 hours, 37° C., feeding 10 mg/mL, read-out: S: solubility), 2700 µg/mL. Further, the solubility at 24 h in series [1] (SGF, 37 °C, simulated gastric fluid, thermodynamic from solid, SGF, 24 hours, 37° C., feeding 10 mg/mL, read-out: S: solubility) was 3900 µg/mL.
For `CN(c1ncnc2[nH]ccc12)[C@@H]1CCc2cc(C#N)nn2C1` [Crystal form C of hydrochloride], the “S: solubility” value in series [1] (setting [4]) amounted to 670 µg/mL; in series [1] (setting [5]), 640 µg/mL; in series [1] (setting [6]), 590 µg/mL; in series [1] (setting [7]) it was 490 µg/mL; in series [1] (setting [8]), 20 µg/mL; in series [1] (setting [9]), 20 µg/mL. The “S: solubility” value in series [1] (setting [10]) was found to be 20 µg/mL; in series [1] (setting [11]), 10 µg/mL; in series [1] (setting [13]), 2700 µg/mL; in series [1] (setting [14]) it was 2400 µg/mL; in series [1] (setting [15]), 2300 µg/mL; in series [1] (setting [12]) it was 2000 µg/mL. Further, the “S: solubility” value in series [1] (setting [16]) was determined as 5600 µg/mL; in series [1] (setting [17]), 5300 µg/mL; in series [1] (setting [18]) it was 5100 µg/mL; in series [1] (setting [19]), 4300 µg/mL.
Take `CN(c1ncnc2[nH]ccc12)[C@@H]1CCc2cc(C#N)nn2C1` [Crystal form B of sulfate]: in series [2], the “water adsorption (second adsorption curve)” value is recorded as 7.62%. Moreover, the “S: solubility” value in series [1] (setting [4]) was 3400 µg/mL; in series [1] (setting [5]), 3400 µg/mL; in series [1] (setting [6]), 3300 µg/mL; in series [1] (setting [7]), 2600 µg/mL; in series [1] (setting [8]) it was 70 µg/mL; in series [1] (setting [9]) it was 70 µg/mL. Further, the “S: solubility” value is 60 µg/mL in series [1] (setting [10]); 50 µg/mL in series [1] (setting [11]); 3700 µg/mL in series [1] (setting [13]); 3800 µg/mL in series [1] (setting [14]); 3700 µg/mL in series [1] (setting [15]); 4000 µg/mL in series [1] (setting [12]). Further, the “S: solubility” value in series [1] (setting [16]) was found to be 5300 µg/mL; in series [1] (setting [17]), 5000 µg/mL; in series [1] (setting [18]), 4800 µg/mL; in series [1] (setting [19]) it was 5300 µg/mL. Further, the pH was found to be 2.7 in series [1] (FaSSIF, 1 hour); 2.6 in series [1] (FaSSIF, 2 hours); 2.7 in series [1] (FaSSIF, 4 hours); 2.4 in series [1] (FaSSIF, 24 hours); 4.3 in series [1] (FeSSIF, 1 hour); 4.3 in series [1] (FeSSIF, 2 hours). In addition, the pH in series [1] (FeSSIF, 4 hours) is 4.3; in series [1] (FeSSIF, 24 hours), 4.4; in series [1] (H2O, 1 hour) it was 2.0; in series [1] (H2O, 2 hours) it was 2.2; in series [1] (H2O, 4 hours), 2.1; in series [1] (H2O, 24 hours) it was 1.9. In addition, the pH in series [1] (SGF, 1 hour) stood at 1.7; in series [1] (SGF, 2 hours), 1.8; in series [1] (SGF, 4 hours), 1.8; in series [1] (SGF, 24 hours), 1.6. For the same compound, the “Purity (area %)” value in series [3] (25° C./60% RH, 1 week) came out at 97.98 area %; in series [3] (40° C./75% RH, 1 week), 98.06 area %; in series [3] (Initial), 98.40 area %. Besides, the “Purity/Initial Purity (%)” value in series [3] (25° C./60% RH, 1 week) amounted to 99.57%; in series [3] (40° C./75% RH, 1 week), 99.65%.
Turning to `C[C@H]1O[C@@H](O[C@H]2[C@@H](O)C[C@H](O[C@H]3[C@@H](O)C[C@H](O[C@H]4CC[C@@]5(C)[C@H](CC[C@@H]6[C@@H]5C[C@@H](O)[C@]5(C)[C@@H](C7=CC(=O)OC7)CC[C@]65O)C4)O[C@@H]3C)O[C@@H]2C)C[C@H](O)[C@@H]1O` [Digoxin], in “in vitro”, the Papp A→B at 2 h, 2 μM was found to be 0.04 ×10⁻⁶ cm/s; the Papp B→A at 2 h, 2 μM amounted to 13.9 ×10⁻⁶ cm/s; the efflux ratio at 2 h, 2 μM amounted to 349.
In turn, `COCCc1ccc(OCC(O)CNC(C)C)cc1` (centres unmarked) [Metoprolol] yielded a Papp A→B at 2 h, 2 μM in “in vitro” of 18.1 ×10⁻⁶ cm/s.
